Data: publication PMC9551036, “A selective and orally bioavailable VHL-recruiting PROTAC achieves SMARCA2 degradation in vivo” (Nature Communications, 2022)
“And” between values parts separate entries of the source, which are not always exact repeats. Equal values may be shown once. “Also recorded” adds a separate entry of the source. Read-outs that look alike come from different tables or passages of the source.

Tests used:
[1] = Pharmacokinetic analyses in mouse; format: in vivo; settings: for AUC(0-t): read-out: AUC0-24h; for Vd: read-out: Vss
Procedure: Compound concentrations in plasma aliquots were measured by quantitative HPLC-MS/MS using an internal standard. Calibration and quality control samples were prepared using blank plasma from untreated animals. Samples were precipitated with acetonitrile and injected into a HPLC system (Agilent 1200). Separation was performed by gradients of 5 mmol/L ammonium acetate pH 4.0 and acetonitrile with 0.1% formic acid on a 2.1 mm by 50 mm XBridge BEH C18 reversed-phase column with 2.5 µm particles (Waters). The HPLC was interfaced by ESI operated in positive ionisation mode to a triple quadrupole mass spectrometer (5000 or 6500+ Triple Quad System, SCIEX) operated in multiple reaction monitoring mode. Transitions were 532.4 to 432.8 m/z for BI01810284, 525.6 to 425.7 m/z for BI01802983 and 1021.6 to 624.2 m/z for BI01580883. Chromatograms were analyzed with Analyst (SCIEX) and pharmacokinetic parameters were calculated by non-compartmental analysis using BI-proprietary software.

[2] = Body weight / tolerability in xenograft studies; format: in vivo, mouse; settings: NCI-H1568 xenograft efficacy study, body weight changes
Procedure: (§1) To establish subcutaneous tumours, mice were injected with 5 × 10^6 NCI-H1568 in PBS with 5% FCS or with 1 × 10^7 A549 cells in PBS with 5% FCS. Tumour diameters were measured with a caliper three times a week. The volume of each tumour (in mm^3) was calculated according to the formula [tumour volume = length × diameter^2 × π/6]. To monitor side effects of treatment, mice were inspected daily for abnormalities and body weight was determined daily after the start of treatment. Animals were sacrificed when the tumours reached a size of 1500 mm^3. Mice were randomised into treatment groups when the average tumour size reached ~210–220 mm^3. Group sizes were calculated individually for each tumour model based on tumour growth during model establishment experiments. A power analysis was performed using a sample size calculator (https://www.stat.ubc.ca/~rollin/stats/ssize/n2.html). For both models used in the study, 10 mice per group were used for each experiment. All administrations were dosed with 10 ml/kg (s.c. and oral). Control mice were dosed subcutaneously with 10% HP-β-CD in 50% Ringer solution and orally with 15% HP-β-CD, that means the control mouse treatment was corresponding to the solvent of the compounds. Compound 6 was dosed subcutaneously either in a d1-4 q3d, d6-8 q2d, d11-13 q2d treatment (Treatment 1) or a q3 or 4d treatment (Treatment 2).

[3] = molecular target: SMARCA2 (Homo sapiens, UniProt P51531); experiment: SMARCA2 IHC in NCI-H1568 xenograft tumours; format: in vivo, mouse; set-up: from tissue; host or cells: subcutaneous NCI-H1568 or A549 xenograft tumours in BomTac:NMRI-Foxn1nu mice; settings: NCI-H1568 xenograft; for SMARCA2 (OD, normalised) / SMARCA2 Nuclear OD: qd, end of study
Procedure: as §1
Xenograft samples were fixed in 10% formaldehyde for 24 h and later moved to ethanol and embedded in paraffin. 2 µm-thick sections were cut using a microtome, then placed on glass slides ([…], silan printer slides PR-S:001), and subsequently dewaxed. SMARCA2 immunohistochemistry was carried out on the Leica BOND RX platform (Leica Biosystems) according to manufacturer’s instructions using a human-specific SMARCA2 antibody (Cell Signalling #11966 clone D9E8B RRID:AB_2797783 1:400) where the tissue underwent a heat-induced epitope retrieval for 20 min. After staining, the slides were cover-slipped with Shandon Consul-Mount glass covers, scanned using a slide scanner (3D HISTECH Ltd.). All slides were reviewed and evaluated for quality by a board-certified MD specialist in Anatomic Pathology (PC). Imaging analysis was performed using the digital pathology platform HALO (Indica Labs). A tissue-classifying algorithm was trained to selectively recognise viable tumour tissue against stroma, necrosis, and skin. The tissue classification output for each scan was reviewed and manually edited as necessary. A cell detection and scoring algorithm was trained to measure DAB optical density (OD) in the nuclei of tumour cells. A positivity threshold for DAB OD was determined by normalisation with respect to the DAB OD as calculated from bona fide negative tissue (e.g. murine stroma as background). The average, background-normalised DAB OD of tumour cell nuclei was used to quantitate SMARCA2 expression in each xenograft sample.

[4] = 5 mg/kg i.v., individual animals
[5] = 30 mg/kg p.o., individual animals
[6] = NMRI, mouse, plasma, iv, 5 mg/kg, NMRI mice, i.v., 5 mg/kg, PK study
[7] = mouse, 5 mg/kg i.v., NCA, individual animals, 5 mg/kg
[8] = mouse, 30 mg/kg p.o., NCA, individual animals, 30 mg/kg
[9] = 30 mg/kg po, individual tumours, 30 mg/kg
[10] = 100 mg/kg, PO, 48 h, individual tumours

Sequence of SMARCA2 (P51531 whole entry): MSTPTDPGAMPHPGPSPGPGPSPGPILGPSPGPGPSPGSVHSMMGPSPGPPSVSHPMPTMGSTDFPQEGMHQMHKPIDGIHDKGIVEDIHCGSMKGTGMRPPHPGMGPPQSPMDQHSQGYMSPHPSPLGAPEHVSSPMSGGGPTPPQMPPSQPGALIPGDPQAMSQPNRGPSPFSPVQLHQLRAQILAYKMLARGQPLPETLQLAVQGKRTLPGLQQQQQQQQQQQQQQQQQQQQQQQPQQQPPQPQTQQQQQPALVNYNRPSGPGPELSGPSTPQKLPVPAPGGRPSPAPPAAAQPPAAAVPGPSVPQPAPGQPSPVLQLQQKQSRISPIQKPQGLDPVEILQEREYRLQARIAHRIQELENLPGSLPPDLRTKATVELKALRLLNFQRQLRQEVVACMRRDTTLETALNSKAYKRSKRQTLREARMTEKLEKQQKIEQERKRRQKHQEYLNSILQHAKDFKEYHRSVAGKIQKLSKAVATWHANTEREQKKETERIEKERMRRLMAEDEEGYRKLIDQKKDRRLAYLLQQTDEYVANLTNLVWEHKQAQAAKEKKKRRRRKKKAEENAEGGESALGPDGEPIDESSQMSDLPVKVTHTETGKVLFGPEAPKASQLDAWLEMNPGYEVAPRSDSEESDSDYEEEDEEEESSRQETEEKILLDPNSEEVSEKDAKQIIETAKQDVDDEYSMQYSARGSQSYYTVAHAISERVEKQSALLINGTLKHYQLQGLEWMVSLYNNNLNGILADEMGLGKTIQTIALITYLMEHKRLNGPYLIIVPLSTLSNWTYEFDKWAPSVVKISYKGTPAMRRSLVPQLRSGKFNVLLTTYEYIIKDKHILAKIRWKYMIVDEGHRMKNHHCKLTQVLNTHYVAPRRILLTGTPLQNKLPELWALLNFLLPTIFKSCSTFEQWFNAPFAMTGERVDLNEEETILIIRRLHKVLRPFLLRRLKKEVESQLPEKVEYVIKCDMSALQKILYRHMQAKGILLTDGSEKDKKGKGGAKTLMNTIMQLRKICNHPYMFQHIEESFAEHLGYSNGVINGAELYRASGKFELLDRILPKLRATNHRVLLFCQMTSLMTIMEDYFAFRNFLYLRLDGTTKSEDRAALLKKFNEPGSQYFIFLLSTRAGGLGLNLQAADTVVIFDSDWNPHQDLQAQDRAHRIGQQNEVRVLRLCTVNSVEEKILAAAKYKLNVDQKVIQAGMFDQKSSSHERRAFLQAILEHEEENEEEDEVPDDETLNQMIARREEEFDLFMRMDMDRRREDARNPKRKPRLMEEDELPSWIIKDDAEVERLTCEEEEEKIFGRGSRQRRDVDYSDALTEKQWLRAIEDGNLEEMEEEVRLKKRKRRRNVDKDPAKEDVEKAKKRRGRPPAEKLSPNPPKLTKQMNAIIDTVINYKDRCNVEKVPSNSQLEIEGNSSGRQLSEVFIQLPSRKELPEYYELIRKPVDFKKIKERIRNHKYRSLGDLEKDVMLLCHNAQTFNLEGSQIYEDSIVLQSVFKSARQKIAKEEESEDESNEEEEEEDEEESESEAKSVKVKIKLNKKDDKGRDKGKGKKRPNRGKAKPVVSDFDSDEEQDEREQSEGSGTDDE

Cc1ncsc1-c1ccc([C@H](CCCCCN2CCC(c3ccc4c(c3)n(C3CCCC3)c3nc(=O)c5c(Br)cccc5n43)CC2)NC(=O)[C@@H]2C[C@@H](O)CN2C(=O)[C@@H](NC(=O)C2(F)CC2)C(C)(C)C)cc1 [compound 11]
AUC [1, 4]: 40.7 µM·h and 36.8 µM·h | AUCinf [1, 4]: 40.9 µM·h and 37 µM·h | Concentration ([1]; 5 mg/kg i.v., time 0.25 h, individual animals): 8050 nM | Concentration ([1]; 5 mg/kg i.v., time 1 h, individual animals): 5350 nM | Concentration ([1]; 5 mg/kg i.v., time 6 h, individual animals): 807 nM | Concentration ([1]; 5 mg/kg i.v., time 24 h, individual animals): 37.6 nM | F ([1]; 30 mg/kg p.o. vs 5 mg/kg i.v., individual animals): 4.09% and 2.11% and 6.74% | AUC [1, 5]: 8.84 µM·h and 4.54 µM·h and 14.6 µM·h | AUCinf [1, 5]: 8.88 µM·h and 4.57 µM·h and 14.6 µM·h | MRT ([1]; NMRI, mouse, plasma, iv, 5 mg/kg, NMRI mice, PK study): 2.9 h | AUC(0-t) [1, 6]: 36 µM·h | AUC(0-inf) ([1]; NMRI, mouse, plasma, iv, 5 mg/kg, NMRI mice, i.v., 5 mg/kg, PK study, read-out: AUC0-inf): 36 µM·h | clearance ([1]; NMRI, mouse, plasma, iv, 5 mg/kg, NMRI mice, i.v., 5 mg/kg, PK study, read-out: Clearance): 2.2 mL/min/kg | Vd [1, 6]: 0.38 L/kg | MRT ([1]; NMRI, mouse, plasma, po, 30 mg/kg, NMRI mice, PK study): 5 h | MRT ([1]; NMRI, mouse, plasma, po, 30 mg/kg, NMRI mice, Xenograft study): 5.6 h | AUC(0-t) ([1]; NMRI, mouse, plasma, po, 30 mg/kg, NMRI mice, p.o., 30 mg/kg, PK study): 9.3 µM·h | AUC(0-inf) ([1]; NMRI, mouse, plasma, po, 30 mg/kg, NMRI mice, p.o., 30 mg/kg, PK study, read-out: AUC0-inf): 9.4 µM·h | bioavailability ([1]; NMRI, mouse, plasma, po, 30 mg/kg, NMRI mice, p.o., 30 mg/kg, PK study, read-out: Bioavailability): 4.3% | AUC(0-t) ([1]; NMRI, mouse, plasma, po, 30 mg/kg, NMRI mice, p.o., 30 mg/kg, Xenograft study): 21 µM·h | AUC(0-inf) ([1]; NMRI, mouse, plasma, po, 30 mg/kg, NMRI mice, p.o., 30 mg/kg, Xenograft study, read-out: AUC0-inf): 21 µM·h | MRT ([1]; NMRI, mouse, plasma, po, 100 mg/kg, NMRI mice): 5.1 h | AUC(0-t) ([1]; NMRI, mouse, plasma, po, 100 mg/kg, NMRI mice, p.o., 100 mg/kg): 38 µM·h | AUC(0-inf) ([1]; NMRI, mouse, plasma, po, 100 mg/kg, NMRI mice, p.o., 100 mg/kg, read-out: AUC0-inf): 39 µM·h | Plasma concentration ([1]; mouse, 5 mg/kg i.v., 0.25 h, individual animals, 5 mg/kg): 9710 nM and 10400 nM | Plasma concentration ([1]; mouse, 5 mg/kg i.v., 1 h, individual animals, 5 mg/kg): 5970 nM and 6930 nM | Plasma concentration ([1]; mouse, 5 mg/kg i.v., 6 h, individual animals, 5 mg/kg): 1490 nM and 870 nM | Plasma concentration ([1]; mouse, 5 mg/kg i.v., 24 h, individual animals, 5 mg/kg): 42.1 nM and 41.5 nM | AUC [1, 7]: 40.7 µM·h and 36.8 µM·h | AUCinf [1, 7]: 40.9 µM·h and 37 µM·h | CL [1, 7]: 1.94 mL/min/kg and 2.14 mL/min/kg | Vss [1, 7]: 0.386 L/kg and 0.334 L/kg | Plasma concentration ([1]; mouse, 30 mg/kg p.o., 0.333 h, individual animals, 30 mg/kg): 172 nM and 94.6 nM and 199 nM | Plasma concentration ([1]; mouse, 30 mg/kg p.o., 1 h, individual animals, 30 mg/kg): 438 nM and 509 nM | Plasma concentration ([1]; mouse, 30 mg/kg p.o., 2 h, individual animals, 30 mg/kg): 577 nM and 1020 nM | Plasma concentration ([1]; mouse, 30 mg/kg p.o., 6 h, individual animals, 30 mg/kg): 565 nM and 239 nM and 1040 nM | Plasma concentration ([1]; mouse, 30 mg/kg p.o., 24 h, individual animals, 30 mg/kg): 6.48 nM and 10.4 nM | AUC [1, 8]: 8.84 µM·h and 4.54 µM·h and 14.6 µM·h | AUCinf [1, 8]: 8.88 µM·h and 4.57 µM·h and 14.6 µM·h | F [1, 8]: 4.09% and 2.11% and 6.74% | concentration at 0.25 h ([1]; mouse, plasma, intravenous, 5 mg/kg, 5 mg/kg i.v., time 0.25 h, individual animals, read-out: Concentration): 9710 nM | concentration at 1 h ([1]; mouse, plasma, intravenous, 5 mg/kg, 5 mg/kg i.v., time 1 h, individual animals, read-out: Concentration): 5970 nM | concentration at 6 h ([1]; mouse, plasma, intravenous, 5 mg/kg, 5 mg/kg i.v., time 6 h, individual animals, read-out: Concentration): 1490 nM | concentration at 24 h ([1]; mouse, plasma, intravenous, 5 mg/kg, 5 mg/kg i.v., time 24 h, individual animals, read-out: Concentration): 42.1 nM | AUC ([1]; mouse, plasma, iv, 5 mg/kg, 5 mg/kg i.v., individual animals, read-out: AUC): 30.4 µM·h | AUC(0-inf) ([1]; mouse, plasma, iv, 5 mg/kg, 5 mg/kg i.v., individual animals, read-out: AUCinf): 30.6 µM·h | concentration at 0.25 h ([1]; mouse, plasma, iv, 5 mg/kg, mouse, 5 mg/kg i.v., 0.25 h, individual animals, read-out: Plasma concentration): 8050 nM | concentration at 1 h ([1]; mouse, plasma, iv, 5 mg/kg, mouse, 5 mg/kg i.v., 1 h, individual animals, read-out: Plasma concentration): 5350 nM | concentration at 6 h ([1]; mouse, plasma, iv, 5 mg/kg, mouse, 5 mg/kg i.v., 6 h, individual animals, read-out: Plasma concentration): 807 nM | concentration at 24 h ([1]; mouse, plasma, iv, 5 mg/kg, mouse, 5 mg/kg i.v., 24 h, individual animals, read-out: Plasma concentration): 37.6 nM | AUC ([1]; mouse, plasma, iv, 5 mg/kg, mouse, 5 mg/kg i.v., NCA, individual animals, read-out: AUC): 30.4 µM·h | AUC(0-inf) ([1]; mouse, plasma, iv, 5 mg/kg, mouse, 5 mg/kg i.v., NCA, individual animals, read-out: AUCinf): 30.6 µM·h | clearance ([1]; mouse, plasma, iv, 5 mg/kg, mouse, 5 mg/kg i.v., NCA, individual animals, read-out: CL): 2.59 mL/min/kg | Vd ([1]; mouse, plasma, iv, 5 mg/kg, mouse, 5 mg/kg i.v., NCA, individual animals): 0.435 L/kg | Vd ([1]; mouse, plasma, iv, 5 mg/kg, mouse, 5 mg/kg i.v.): 0.385 L/kg | clearance ([1]; mouse, plasma, iv, 5 mg/kg, mouse, 5 mg/kg i.v., read-out: clearance): 2.2 mL/min/kg | concentration at 1 h ([1]; mouse, plasma, oral, 30 mg/kg, 30 mg/kg p.o., time 1 h, individual animals, read-out: Concentration): 337 nM | concentration at 2 h ([1]; mouse, plasma, oral, 30 mg/kg, 30 mg/kg p.o., time 2 h, individual animals, read-out: Concentration): 874 nM | concentration at 24 h ([1]; mouse, plasma, oral, 30 mg/kg, 30 mg/kg p.o., time 24 h, individual animals, read-out: Concentration): 8.75 nM | bioavailability ([1]; mouse, plasma, oral, 30 mg/kg, mouse, 30 mg/kg p.o. vs 5 mg/kg i.v., read-out: F% p.o. (oral bioavailability)): 3% | concentration at 1 h ([1]; mouse, plasma, po, 30 mg/kg, mouse, 30 mg/kg p.o., 1 h, individual animals, read-out: Plasma concentration): 337 nM | concentration at 2 h ([1]; mouse, plasma, po, 30 mg/kg, mouse, 30 mg/kg p.o., 2 h, individual animals, read-out: Plasma concentration): 874 nM | concentration at 24 h ([1]; mouse, plasma, po, 30 mg/kg, mouse, 30 mg/kg p.o., 24 h, individual animals, read-out: Plasma concentration): 8.75 nM | tolerability [2]: well tolerated | SMARCA2 levels in tumours at the end of the efficacy study, IHC [3]: undetectable by IHC in most treated tumour samples; also recorded: below the limit of detection | SMARCA2 (OD, normalised) [3, 9]: 0.00000 and 0.00917 | SMARCA2 Nuclear OD [3, 9]: 0.03172 and 0.04361 and 0.06213 and 0.0483 | median decrease of SMARCA2 levels in viable tumour tissue compared to vehicle ([3]; 100 mg/kg p.o., 48 h after treatment): 89% | SMARCA2 (OD, normalised) ([3]; 100 mg/kg po, individual tumours): 0.00000 | SMARCA2 Nuclear OD ([3]; 100 mg/kg po, individual tumours, 100 mg/kg): 0.03159 and 0.03653 and 0.04664 and 0.03486 | Avg Stain 1 Nuclear OD (SMARCA2 IHC) [3, 10]: 7.84E-02 and 7.05E-02 and 6.17E-02 and 6.89E-02 | Normalised SMARCA2 (OD) [3, 10]: 0.04325 and 0.03531 and 0.02651 and 0.03377
